This is an account of results in article PMC6934184, “Selective DNA-PKcs inhibition extends the therapeutic index of localized radiotherapy and chemotherapy” (The Journal of Clinical Investigation, 2019).

The target of this assay is T1, SRPK1 (Homo sapiens, UniProt Q96SB4).
T1 construct: purchased Thermo Fisher Scientific (Life Technologies) SelectScreen
In words: SelectScreen Z'LYTE. In kind it is biochemical. The method, boiled down: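 SelectScreen broad panel; activity (Z'LYTE, Adapta) plus binding formats. ATP: Km app for CSF1R Z'LYTE; 10 for CAMK1 Adapta. Readout = % per kinase.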

What is called inhibition is the relative decrease from the control value, in per cent.

T1 sequence (Q96SB4 whole entry): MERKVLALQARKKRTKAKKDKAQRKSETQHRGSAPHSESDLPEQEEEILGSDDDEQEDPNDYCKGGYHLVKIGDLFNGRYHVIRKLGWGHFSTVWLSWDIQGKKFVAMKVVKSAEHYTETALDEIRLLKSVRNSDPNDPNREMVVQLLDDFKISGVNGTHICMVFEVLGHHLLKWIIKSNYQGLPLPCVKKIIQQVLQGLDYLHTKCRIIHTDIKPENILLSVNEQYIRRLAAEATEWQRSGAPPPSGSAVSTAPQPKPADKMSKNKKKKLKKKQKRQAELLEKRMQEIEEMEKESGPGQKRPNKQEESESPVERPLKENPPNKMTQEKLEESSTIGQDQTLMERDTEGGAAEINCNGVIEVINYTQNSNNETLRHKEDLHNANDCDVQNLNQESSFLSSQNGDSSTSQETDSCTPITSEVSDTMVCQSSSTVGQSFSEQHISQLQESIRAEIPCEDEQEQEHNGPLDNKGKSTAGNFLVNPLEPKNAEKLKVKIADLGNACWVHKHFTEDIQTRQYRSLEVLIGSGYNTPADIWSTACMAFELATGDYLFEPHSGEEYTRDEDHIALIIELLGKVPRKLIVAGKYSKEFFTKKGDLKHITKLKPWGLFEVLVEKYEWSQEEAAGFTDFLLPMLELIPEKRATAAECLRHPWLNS

Take `CN(C(=O)CN1CCOCC1)c1ccc2sc3c(-c4cccc5c(=O)cc(N6CC7CCC(C6)O7)oc45)cccc3c2c1` [NU5455]: the inhibition at 1 µM is -1.1%.
